{"source": "patent US20110123623A1", "about": "“RHAMNOLIPID MECHANISM” (priority 2009, published 2011)", "key": {"[1]": {"experiment": "Storage stability of Di-rhamnolipid W3CTS", "format": "physicochemical", "conditions": "kept under Nitrogen in bottles at room temperature, 10 years", "excerpt": "Di-rhamnolipid W3CTS has been isolated from Pseudomonas aeruginosa. Production of >98.5% pure Di-rhamnolipid W3CTS is a very expensive procedure; thus, the goal is to produce the clinically accepted purity of the rhamnolipid that has a long shelf life."}, "[2]": {"target": "human dopamine D2L (human recombinant) (Homo sapiens, UniProt P14416)", "sequence (P14416 whole entry)": "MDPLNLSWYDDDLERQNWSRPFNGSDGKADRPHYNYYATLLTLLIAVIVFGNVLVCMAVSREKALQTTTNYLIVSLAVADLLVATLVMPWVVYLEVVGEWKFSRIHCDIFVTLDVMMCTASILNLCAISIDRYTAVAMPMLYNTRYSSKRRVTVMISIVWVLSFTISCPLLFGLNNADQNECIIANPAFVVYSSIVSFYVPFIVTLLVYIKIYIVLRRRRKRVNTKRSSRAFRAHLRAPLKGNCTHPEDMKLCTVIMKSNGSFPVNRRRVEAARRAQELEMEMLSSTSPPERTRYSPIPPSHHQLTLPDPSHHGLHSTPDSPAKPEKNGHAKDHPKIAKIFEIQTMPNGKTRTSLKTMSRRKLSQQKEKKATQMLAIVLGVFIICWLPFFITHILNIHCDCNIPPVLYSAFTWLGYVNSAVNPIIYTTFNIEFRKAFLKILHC", "experiment": "Dopamine D2L receptor binding of [3H]Spiperone", "conditions": "100 μM in 0.5 DMSO", "description": "At the concentration of 100 μM Di-rhamnolipid W3CTS in 0.5% DMSO, Di-rhamnolipid W3CTS inhibited 100% dopamine D1 (human recombinant) binding of [^3H] SCH23390. At the same concentration of 100 μM W3CTS in 0.5 DMSO measuring binding of [^3H]Spiperone to human dopamine D2L (human recombinant) was inhibited by 53%."}, "in vivo": {"experiment": "in vivo", "conditions": "female, Swiss-Webster, mouse, iv", "description": "(§1) Maximum tolerated doses of di-rhamnolipid W3CTS were administered intravenously in female Swiss-Webster mice.\n(§2) Female Swiss-Webster mice obtained from the Houston, Tex. site Harlan Sprague Dawley, Inc were used in the study. All mice were divided into 6 groups. The vehicle and Di-rhamnolipid W3CTS were administered as an intravenous bolus, via tail vein, beginning with lowest dose level (75 mg/kg). […] In this study, the maximum tolerated dose of di-rhamnolipid W3CTS in female Swiss-Webster mice was 120 mg/kg. Three mice (LD50) of the next higher dose tested (135 /mg/kg) died immediately upon administration."}, "[3]": {"system": "female Swiss-Webster mice", "experiment": "in vivo", "conditions": "mouse", "description": "as §1, §2"}, "C. albicans [4]": {"system": "C. albicans", "experiment": "Immunorestoration activity: cyclophosphamide immunosuppression and C. albicans challenge", "format": "in vivo, mouse", "conditions": "100 mg/kg i/p days 1, 3, 5, cyclophosphamide 30 mg/kg p/o days 2, 4, 6", "description": "Di-rhamnolipid W3CTS was administered i/p. (100 mg/kg) to groups of ICR derived male mice weighing 22±2 g on days 1, 3, and 5, with the immunosuppressant cyclophosphamide (30 mg/kg p/o.) administered on days 2, 4, and 6. One day after the last immunosuppressant dose, the mice were challenged with a suspension of C. Albicans sufficient to result in 90-100% mortality within 10 days in vehicle treated animals. Survival of 30 percent or more (≧30) of the animals was considered significant and indicated possible immunorestoration activity. Reference agent was lipopolysaccharide 0.3 mg/kg i/p."}, "[5]": {"system": "T-lymphocyte cells isolated from thymus of balb/c mice", "experiment": "Mouse T-cell proliferation (thymidine incorporation)", "format": "cell-based", "description": "T-lymphocyte cells isolated from thymus of balb/c mice weighing 17±1 g were used. Test compound and/or vehicle was incubated with the cells (4×10^6/ml) in the presence of 3 μg/ml concanavalin A (Con A) overnight. Thymidine incorporation was assessed by liquid scintillation counting. B-lymphocyte cells isolated from the spleen of balb/c mice weighing 17±1 g were used. Test compound and/or vehicle was incubated with the cells (1.5×10^6/ml) in the presence of 10 μg/ml lipopolysaccharide (LPS) in AIM-V medium pH 7.4 at 37° C., during 24 hours. [^3H]Thymidine (120 nM) was then added for an additional overnight incubation period. Thymidine incorporation was assessed by liquid scintillation counting. […] T-cells isolated from mouse thymus were inhibited at the concentration of 10 μM by 24% and in the presence of concanavalin T-cells proliferation was inhibited 43%."}, "psoriatic patients": {"system": "psoriatic patients", "experiment": "Physician sponsored treatment of psoriatic patients (PASI)", "format": "in vivo, human", "excerpt": "Twelve psoriatic hospital bed patients, and one patient with seborrheic dermatitis and psoriasis, one patient with lichen planus and one with dermatitis cicumscripta unilocullaris as an out clinic patient were recruited as study volunteers.\nAbbreviations: PASI=Psoriasis Area Severity Index (Erythema, Infiltration and Scaling); PVP=Psoriasis Vulgaris in Placibus; d=days; m=months; y=years; ster=steroids (treated)"}, "[6]": {"experiment": "Micronucleus test in-vivo"}, "C. albicans [7]": {"system": "C. albicans", "experiment": "Immunomodulation activity: C. albicans challenge survival", "format": "in vivo, mouse", "conditions": "100 mg/kg i/p 24 hours before i/v C. albicans challenge; ICR male mice", "description": "Di-rhamnolipid W3CTS was administered i/p (100 mg/kg) to groups of 10 ICR derived male mice weighing 24±2 g at 24 hours before i/v challenge with a suspension of C. albicans (1×10^7 cfu/mouse) sufficient to result in 90-100% mortality within 10 days in vehicle treated animals. Survival of 20 percent or more (≧20) of the animals is considered significant and indicates possible immunomodulation activity. Reference agent was lipopolysaccharide 0.3 mg/kg i/p."}, "BALB/c male mice": {"system": "BALB/c male mice", "experiment": "Immunostimulation (humoral)", "format": "in vivo, mouse", "excerpt": "(§3) Immunostimulation (humoral) in BALB/c male mice and Immunosuppression (humoral)^(2,7) on ICR male mice were negative."}, "ICR male mice": {"system": "ICR male mice", "experiment": "Immunosuppression (humoral)", "format": "in vivo, mouse", "excerpt": "as §3"}, "female ICR mice": {"system": "female ICR mice", "experiment": "Immunostimulation (cellular): oxazolone-induced delayed type hypersensitivity", "format": "in vivo, mouse", "conditions": "oxazolone-induced DTH", "excerpt": "Immunostimulation (cellular): Oxazolone-induced delayed type hypersensitivity of female ICR mice was negative."}, "female and male mice": {"system": "female and male mice", "experiment": "Blood findings after one single i/v dose", "format": "in vivo, mouse", "conditions": "75 mg/kg single i/v dose", "description": "Blood findings in female and male mice treated i/v with one single dose of 75 mg/kg of Di-rhamnolipid W3CTS\nMonocytes were increased in treated mice up to 100% after 4th day and 29th"}, "nude guinea pigs": {"system": "nude guinea pigs", "experiment": "DNCB induced delayed type hypersensitivity in nude guinea pigs", "format": "in vivo, guinea pig", "description": "The nude guinea pig is used as a test animal because of different animal skins; nude guinea pig skin is claimed to be the one closest resembling human skin.\nIn DNCB sensitized guinea pigs delayed type hypersensitivity reactions were induced with patches soaked with 0.25% (w/v) DNCB in ethanol/propylene glycol kept on the animals back for 24 hours. The test sites were treated twice daily during 7 days with: Dovonex ointment ([…]), 1% Di-rhamnolipid W3CTS in Vaseline, vehicle and untreated area. […] Dovonex has been improved by time."}}, "note": "Values joined by “and” are separate entries in the source; they are usually repeats but may differ in a detail not shown here. Equal entries are not always repeated. Where two headings read alike, the source gives them in different places.", "data": [{"smiles": "CCCCCCCC(CC(=O)O)OC(=O)CC(CCCCCCC)OC1OC(C)C(O)C(O)C1OC1OC(C)C(O)C(O)C1O", "note": "(stereo not drawn) [Di-rhamnolipid W3CTS]", "values": [{"measurement": "change of structure on storage", "setting": "[1]", "result": "did not change its structure during 10 years"}, {"measurement": "inhibition at 100 µM", "setting": "[2]", "result": 53, "unit": "%"}, {"measurement": "LD50 at 14 day", "setting": "in vivo", "result": 135, "unit": "mg/kg"}, {"measurement": "MTD at 14 day", "setting": "in vivo", "result": 120, "unit": "mg/kg"}, {"measurement": "gross abnormalities at necropsy", "setting": "[3]", "result": "no gross abnormalities"}, {"measurement": "tail finding, higher dose groups", "setting": "[3]", "result": "scabbing and necrosis of tails"}, {"measurement": "immunorestoration activity (survival of 30 percent or more considered significant)", "setting": "C. albicans [4]", "result": "possible very significant immunorestoration activity"}, {"measurement": "inhibition at 10 µM", "setting": "[5]; in the presence of concanavalin, read-out: inhibition of T-cells proliferation", "result": 43, "unit": "%"}, {"measurement": "inhibition at 10 µM", "setting": "[5]; without concanavalin, read-out: inhibition of T-cells", "result": 24, "unit": "%"}, {"measurement": "Psoriasis Area Severity Index After Treatment W3CTS", "setting": "psoriatic patients; 1.0% eucerin ointment, 15-40 treating days, one patient per line", "result": "0.2 (5×) and 0.3 and 0.4 and 6 and 0.6 (2×) and 1.6 and 0.9"}, {"measurement": "Psoriasis Area Severity Index Extended Evaluation W3CTS", "setting": "psoriatic patients; 1 y (year), one patient per line", "result": 1, "unit": "y = 0"}, {"measurement": "Psoriasis Area Severity Index Extended Evaluation W3CTS", "setting": "psoriatic patients; 3 m (months), one patient per line", "result": "3 m = 0 (2×) and 3 m relapse and 3 m = 0.1"}, {"measurement": "Psoriasis Area Severity Index Before Treatment W3CTS", "setting": "psoriatic patients; baseline of W3CTS treated lesions, one patient per line", "result": "9.6 (2×) and 8.1 (3×) and 10.8 (4×) and 14.4 and 5.4 and 8.4"}, {"measurement": "duration free of psoriatic lesions", "setting": "psoriatic patients; some of the patients", "result": "free of psoriatic lesions up to seven years"}, {"measurement": "micronucleus test", "setting": "[6]", "result": "negative"}, {"measurement": "immunomodulation activity (survival of 20 percent or more considered significant)", "setting": "C. albicans [7]", "result": "possible significant immunomodulation activity"}, {"measurement": "Immunostimulation (humoral)", "setting": "BALB/c male mice", "result": "negative"}, {"measurement": "Ames test", "setting": "Ames test", "result": "negative"}, {"measurement": "Immunosuppression (humoral)", "setting": "ICR male mice", "result": "negative"}, {"measurement": "Immunostimulation (cellular)", "setting": "female ICR mice", "result": "negative"}, {"measurement": "increase of monocytes", "setting": "female and male mice; after 4th day and 29th", "result": "up to 100%"}, {"measurement": "increase of neutrophils in blood", "setting": "female and male mice; after 29 days", "result": 43.61, "unit": "%"}, {"measurement": "decrease of lymphocytes", "setting": "female and male mice; fourth day", "result": 24.15, "unit": "%"}, {"measurement": "increase of neutrophils in blood", "setting": "female and male mice; fourth day", "result": 51.77, "unit": "%"}, {"measurement": "decrease of lymphocytes", "setting": "female and male mice; twenty nine days", "result": 24.60, "unit": "%"}, {"measurement": "anti-inflammatory effect in the model", "setting": "nude guinea pigs; 1% in Vaseline, preliminary data", "result": "very strong anti-inflammatory effect"}, {"measurement": "state of test areas by day 7", "setting": "nude guinea pigs; treated twice daily during 7 days, W3CTS 1% in Vaseline", "result": "healed"}]}]}
